Test results from US20020091139A1 (DAMON TODD HOLDINGS, L.L.C., priority 1997, published 2002).

Legend:
[1] = test system: steroid-dependent asthmatics (SDA) and non-steroid-dependent asthmatics (NSDA); assay: Follow-up observations of asthmatics treated long-term with HCQ (SDA and NSDA groups); type: in vivo, human
From the text: Follow-up observations carried out over the last four years among patients treated with HCQ continue to encourage further research. In Table I and II, data concerning the course of 23 steroid-dependent asthmatics (SDA) who have been followed for at least six months on therapy is presented. Spirometric data from these patients is summarized on page 2 of Table I. In the summary, two data groups are reported: the first includes all data points generated and compares each time point with t=0; the second is restricted to the 17 patients for whom data is complete at all time points. The findings are similar for both groups: both FVC and FEV-1 increase both a significant amount (about 10%) and to a degree that is statistically significant as well (using Wilcoxon Signed-Rank probability testing). These increases occurred despite a taper in prednisone outlined in Table I and detailed in Table II. Average daily oral steroid dosage was reduced by 60%, while objective spirometric flow measures and general health improved markedly.
Changes in severity of asthma in non-steroid-dependent asthmatics (NSDA) are depicted in Table III. In Table III, spirometric flow data is presented. […] Probability testing (Wilcoxon Signed-Rank) in this group achieves significant change from baseline measures by month six and continued improvement is noted throughout the time of treatment.
2] […] In neither the NSDA group (Table I) nor in the SDA group (Table II) did spirometric flows (as measured by FEV-1) improve to a statistically significant degree at three months. […] In Table IV, data regarding the frequency of rescue-intervention in the NSDA group is reviewed. […] The course of patient, presented in Table V is illustrative of the reproducibility of the delay in onset of action seen in severe asthmatics. This patient was started on HCQ due to very labile asthma requiring frequent ER visits and oral steroid bursts (see Table VI). On HCQ they did better, but became pregnant (against medical advice) and the drug was discontinued. Subsequently, they did quite poorly necessitating restart of alternate-day oral steroids which were maintained during the latter part of their pregnancy. HCQ was restarted at their request following delivery. Again, no clear effect in the person was noted after three months, but after seven months substantial improvement was noted despite appreciable reduction in the dose of their alternate-daily oral steroids.
In patients with normal IgE levels, changes were not significant either in amount (19%) nor by statistical criteria. Significant declines in IgE were virtually completely confined to that segment of the patients who entered treatment with elevated IgE levels. […] These clinical observations are supported by in vitro studies carried out recently by Seggev and co-workers. […] J Immunol 1993;150(8):62A.

[2] = test system: symptomatic asthmatics; assay: Double blind placebo-controlled 30-week trial of HCQ in moderate symptomatic asthma; type: in vivo, human
From the text: Symptomatic asthmatics (mean duration>11 years) on stable doses of at least 6 puffs of inhaled steroid per day and p.r.n. bronchodilator (BD) were studied. […] Changes from baseline mean FEV-1 comprised the primary efficacy variable. Other objective variables included daily peak flows, BD usage and setum IgE level; symptom scores and physician global (safety and tolerance) assessments were also obtained. Subjective efficacy variables (rated from 0-3) include breathing restrictions (wheezing, coughing, chest tightness and/or breathlessness), revived need for BD at 6 hours, and nocturnal asthma.

[3] = test system: influenza and adenovirus; conditions: personal communication; cited from earlier work
[4] = test system: neutrophil superoxide production; conditions: also in peripheral blood monocytes; cited from earlier work
[5] = test system: HIV virus; conditions: T cells and monocytes; cited from earlier work
[6] = test system: severe symptomatic non-steroid dependent and steroid-dependent asthmatics; assay: Open label 28-week trial of HCQ in severe asthma; type: in vivo, human; conditions: for mean IgE level: ten patients
Description: Annals of Allergy 1992;68(1):80 (abstract #40). The initial trial involved four severe symptomatic non-steroid dependent and seven steroid-dependent asthmatics in an open label 28-week trial at doses of 300-400 mg/d. Evaluation measures included daily symptom diary scores of six symptoms, subjective global evaluation, spirometric flow studies, and cumulative monthly steroid dosages.

[7] = test system: human lung; conditions: ex vivo human lung; cited from earlier work
[8] = test system: T-cells and monocytes; human macrophages; conditions: cited from earlier work
[9] = test system: platelet aggregation; conditions: cited from earlier work
[10] = steroid-dependent asthmatics, at least six months on therapy
[11] = group as a whole, 28 weeks, 300-400 mg/d, p<0.01
[12] = non-steroid-dependent asthmatics, p<0.05
[13] = steroid-dependent patients, not significant

For CCN(CCO)CCCC(C)Nc1ccnc2cc(Cl)ccc12 (stereo not shown) [HCQ, Hydroxychloroquine], the “forced vital capacity and FEV-1” value ([1]; 11 non-steroid-dependent asthmatics, significant from month six) was “very significant improvements”, the “rescue-interventions (normalized rates)” value ([1]; NSDA group, until after three months therapy) was “no significant fall” and the “decrease in serum IgE levels” value ([1]; patients in general, pre- vs post-treatment) was about 40%. For the same molecule, the “change in serum IgE levels” value ([1]; patients with normal IgE levels, not significant) was 19%, the “onset of significant effects” value ([1]; severe asthmatics) was “only after three months” and the “reduction of average daily oral steroid dosage” value ([1]; steroid-dependent asthmatics) was 60%. For the same molecule, the FEV-1 increase [1, 10] was “about 10%”, the FVC increase [1, 10] was “about 10%” and the tolerability ([2]; 30 weeks) was “well tolerated without notable side-effects”. For the same molecule, the “patients requiring oral steroid rescue interventions” value ([2]; HCQ group n=8 (4 on placebo)) was 2 patients, the “mean IgE level” value ([2]; HCQ group, baseline) was 240 lU/ml and the “mean IgE level” value ([2]; HCQ group, on therapy) was 125 lU/ml. For the same molecule, the “evening peak flows rise” value ([2]; HCQ group, p<0.04) was 14.2%, the “mean IgE level decline” value ([2]; HCQ group, p<0.05) was 48% and the BD usage fall ([2]; bronchodilator usage, HCQ group, p<0.03) was 18.6%. The “mean FEV-1 increase” value ([2]; last 2 visits on therapy vs baseline, HCQ group n=8, p<0.05) was 10.8%, the effect on cholesterol ([2]; sparing of HDL levels) was “mild hypocholesterolemic effects” and the “infection by influenza and adenovirus” value [3] was “inhibits”. The “neutrophil superoxide production and release” value [4] was “markedly reduce”, the “replication of HIV virus” value [5] was “actively inhibits” and the “effect on plasma theophylline levels” value ([6]; drug interaction) was “no significant effect”. The “mean IgE level” value ([6]; during treatment, p<0.05) was 339 IU/ml, the “mean FEV-1 increase” value [6, 11] was 17% and the “mean FVC increase” value [6, 11] was 10%. The “mean of each of six symptom scores” value ([6]; group as a whole, p<0.05) was “declined significantly”, the “mean FEV-1 rise” value [6, 12] was 32% and the “mean FVC rise” value [6, 12] was 19%. For the same molecule, the “mean symptom scores for four of five symptoms” value [6, 12] was “declined from baseline”, the “mean IgE level” value ([6]; pretreatment) was 645 IU/ml and the “cumulative mean monthly steroid dosage required” value ([6]; steroid-dependent patients, at entry) was 383 mg. The “cumulative mean monthly steroid dosage required” value ([6]; steroid-dependent patients, at week 28) was 191 mg, the “decrease of cumulative mean monthly steroid dosage required” value ([6]; steroid-dependent patients, entry to week 28, p<0.01) was 50% and the “mean FEV-1 increase” value [6, 13] was 9%. For the same molecule, the “mean FVC increase” value [6, 13] was 7%, the symptom scores ([6]; steroid-dependent patients, p<0.05) was “two of five symptom scores improved” and the histamine release [7] was “inhibits”. For the same molecule, the leukotriene release [7] was “inhibits”, the “release of IL-1 and IL-6” value ([8]; T-cells and monocytes in vitro) was “inhibit” and the “release of tumor necrosis factor” value ([8]; human macrophages in vitro) was “inhibit”. The platelet aggregation [9] was “inhibit”.
